In patent publication US8669065B1, “Methods for identifying molecules that modulate lipid binding sites of ion channels” (priority 2011, dated 2014) one finds solubility data, which are given here for one compound.

SMILES strings stand for the structures. ≈ marks a conversion by molar mass, not a printed value.

The data set can be described thus: physchem. The conditions noted are these: water. The source says:
Most native lipids have long fatty acyl side chains rendering them insoluble and difficult to work with in an aqueous environment.

By solubility is commonly meant the dissolved amount per volume that the medium holds. A lower solubility goes with little dissolved substance. `CCCCCCCC(=O)OC[C@H](COP(=O)(O)O)OC(=O)CCCCCCC` [C8-PA] yielded a solubility of 50 mM (≈ 21.2 mg/mL).
